Experimental data taken from US20200237700A1, “METHODS OF REDUCING OR PREVENTING OXIDATION OF SMALL DENSE LDL OR MEMBRANE POLYUNSATURATED FATTY ACIDS” (Amarin Pharmaceuticals Ireland Limited, priority 2015, published 2020).

Assays:
[1] = tested on: human sdLDL; test: Copper-induced sdLDL oxidation, TBARS after 2 hr (Example 6); format: biochemical; details: 10 μM CuSO4
Experimental: An experiment to study the antioxidant effect of EPA in small dense […] performed. […] Vitamin E (α-tocopherol) was purchased from Sigma-Aldrich and prepared in ethanol at 1.0 mM (ε=3.06×10^4 M^-1 cm^-1 at 294 nm) just prior to experimental use. All test compounds were further diluted in ethanol or aqueous buffer as needed. Venous blood was collected from healthy volunteers into vacutainer tubes containing sodium EDTA. Plasma was separated by centrifugation at 3000 g for 25 min at 4° C. and adjusted to a density of 1.020 g/mL with KBr. Triglyceride-rich lipoproteins (TGRL) and LDL fractions were then isolated by sequential centrifugation at 70,000 rpm at 4° C. in a Beckman LE-80 ultracentrifuge using a Beckman 50.4Ti rotor (Beckman Coulter, Inc., Fullerton, Calif.). The TGRL fraction (with a relative density of <1.020) was aspirated from the top of the centrifugate and discarded, leaving an LDL-enriched […] relative density of 1.020 to 1.063). […] The sdLDL subfraction was retained for additional experimentation. Plasma and lipoprotein fractions were maintained at 4° C. and protected from excessive exposure to light. Prior to oxidation experiments, EDTA was removed from the lipoprotein fraction using PD-10 desalting columns (GE Healthcare, Piscataway N.J.). After equilibration of the column with phosphate buffered saline (PBS), 2.5 mL of the lipoprotein fraction was loaded on the column and the flow-through discarded. The lipoprotein was then eluted with 3 mL of PBS. The LDL fractions were further diluted with PBS to obtain a 100 μg/mL apoB100 concentration. […] Data are presented as mean±S.D. for (N) separate samples or treatment groups. Differences between groups were analyzed using the two-tailed, Student's t-test (for comparisons between only two groups) or ANOVA followed by Dunnett or Student-Newman-Keuls multiple comparisons post-hoc analysis (for comparisons between three or more groups).

[2] = tested on: unfractionated LDL isolated from human plasma; test: Copper-induced oxidation of unfractionated LDL, TBARS (Example 6); format: biochemical; details: 10.0 μM; unfractionated LDL
Experimental: All test compounds were further diluted in ethanol or aqueous buffer as needed. Venous blood was collected from healthy volunteers into vacutainer tubes containing sodium EDTA. […] Plasma and lipoprotein fractions were maintained at 4° C. and protected from excessive exposure to light. Prior to oxidation experiments, EDTA was removed from the lipoprotein fraction using PD-10 desalting columns (GE Healthcare, Piscataway N.J.). After equilibration of the column with phosphate buffered saline (PBS), 2.5 mL of the lipoprotein fraction was loaded on the column and the flow-through discarded. The lipoprotein was then eluted with 3 mL of PBS. The LDL fractions were further diluted with PBS to obtain a 100 μg/mL apoB100 concentration. […] Differences between groups were analyzed using the two-tailed, Student's t-test (for comparisons between only two groups) or ANOVA followed by Dunnett or Student-Newman-Keuls multiple comparisons post-hoc analysis (for comparisons between three or more groups).

## CC/C=C\C/C=C\C/C=C\C/C=C\C/C=C\CCCC(=O)O [EPA, cis-5,8,11,14,17-eicosapentaenoic acid]
[1]; 1.0 μM
  reduced TBARS levels compared to vehicle-treated controls: 13%
[1]; 10.0 μM
  reduced TBARS levels compared to vehicle-treated controls: 57%
[2]
  reduced TBARS levels: 17%
